PubChem BioAssay (NCI)
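Abbreviation: GI50, concentration required for 50% inhibition of growth. The concentration for full growth arrest is given as TGI.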

Legend:
Experiment in all cases: DTP human tumour cell line panel, 384-well format
OVCAR-5 ovarian = test system: OVCAR-5 ovarian
786-0 renal = test system: 786-0 renal
SF-539 CNS = test system: SF-539 CNS
MDA-MB-435 melanoma = test system: MDA-MB-435 melanoma
SK-OV-3 ovarian = test system: SK-OV-3 ovarian
OVCAR-4 ovarian = test system: OVCAR-4 ovarian
HOP-62 NSCLC = test system: HOP-62 NSCLC
KM12 colon = test system: KM12 colon
SW-620 colon = test system: SW-620 colon
NCI-H226 lung = test system: NCI-H226 lung
SN12C renal = test system: SN12C renal
HT29 colon = test system: HT29 colon
UACC-257 melanoma = test system: UACC-257 melanoma
MDA-MB-231 breast = test system: MDA-MB-231 breast
HS 578T breast = test system: HS 578T breast
LOX IMVI melanoma = test system: LOX IMVI melanoma
ACHN renal = test system: ACHN renal
COLO 205 colon = test system: COLO 205 colon
SR leukemia = test system: SR leukemia
EKVX NSCLC = test system: EKVX NSCLC
NCI-H322M lung = test system: NCI-H322M lung
U251 glioblastoma = test system: U251 glioblastoma
TK-10 renal = test system: TK-10 renal
HOP-92 NSCLC = test system: HOP-92 NSCLC
SF-295 CNS = test system: SF-295 CNS
SK-MEL-5 melanoma = test system: SK-MEL-5 melanoma
HCT-15 colon = test system: HCT-15 colon
MDA-MB-468 breast = test system: MDA-MB-468 breast
NCI-H23 lung = test system: NCI-H23 lung
CCRF-CEM leukemia = test system: CCRF-CEM leukemia
SF-268 CNS = test system: SF-268 CNS
SK-MEL-28 melanoma = test system: SK-MEL-28 melanoma
NCI-H460 NSCLC = test system: NCI-H460 NSCLC
A549 NSCLC = test system: A549 NSCLC
MOLT-4 leukemia = test system: MOLT-4 leukemia
IGROV1 ovarian = test system: IGROV1 ovarian
SNB-19 CNS = test system: SNB-19 CNS
M14 melanoma = test system: M14 melanoma
DU-145 prostate = test system: DU-145 prostate
OVCAR-8 ovarian = test system: OVCAR-8 ovarian
BT-549 breast = test system: BT-549 breast
MCF7 breast = test system: MCF7 breast
A498 renal = test system: A498 renal
HL-60(TB) leukemia = test system: HL-60(TB) leukemia
OVCAR-3 ovarian = test system: OVCAR-3 ovarian
UO-31 renal = test system: UO-31 renal
HCC-2998 colon = test system: HCC-2998 colon
K-562 leukemia = test system: K-562 leukemia
CAKI-1 renal = test system: CAKI-1 renal
RPMI-8226 leukemia = test system: RPMI-8226 leukemia
NCI-H522 lung = test system: NCI-H522 lung
NCI/ADR-RES ovarian = test system: NCI/ADR-RES ovarian
PC-3 prostate = test system: PC-3 prostate
RXF 393 renal = test system: RXF 393 renal
HCT-116 colon = test system: HCT-116 colon
T-47D breast = test system: T-47D breast
MALME-3M melanoma = test system: MALME-3M melanoma
UACC-62 melanoma = test system: UACC-62 melanoma
SNB-75 CNS = test system: SNB-75 CNS

O=C(Cc1ccc(-c2ccc(OCCN3CCOCC3)cc2)cn1)NCc1ccccc1 gave a GI50 (OVCAR-5 ovarian) of 80 nM, a TGI (OVCAR-5 ovarian) of over 100000 nM and a GI50 ([…]-0 renal) of 32.3 nM. The TGI (786-0 renal) was 220 nM, the GI50 (SF-539 CNS) was 21.4 nM and the TGI (SF-539 CNS) was 53.7 nM. For the same molecule, the GI50 (MDA-MB-435 melanoma) was 15.1 nM, the TGI (MDA-MB-435 melanoma) was 30.7 nM and the GI50 (SK-OV-3 ovarian) was 32.7 nM. It also gave a TGI (SK-OV-3 ovarian) of 2670 nM, a GI50 (OVCAR-4 ovarian) of 41.1 nM and a TGI (OVCAR-4 ovarian) of 39700 nM. For the same molecule, the GI50 (HOP-62 NSCLC) was 29.8 nM, the TGI (HOP-62 NSCLC) was 3420 nM and the GI50 (KM12 colon) was 30 nM. For the same molecule, the TGI (KM12 colon) was 2010 nM, the GI50 (SW-620 colon) was 30.7 nM and the TGI (SW-620 colon) was over 100000 nM. For the same molecule, the GI50 (NCI-H226 lung) was 34.6 nM, the TGI (NCI-H226 lung) was 220 nM and the GI50 (SN12C renal) was 38.9 nM. For the same molecule, the TGI (SN12C renal) was 16600 nM, the GI50 (HT29 colon) was 28.3 nM and the TGI (HT29 colon) was over 100000 nM. The GI50 (UACC-257 melanoma) was 45.7 nM, the TGI (UACC-257 melanoma) was 43700 nM and the GI50 (MDA-MB-231 breast) was 53.2 nM. The TGI (MDA-MB-231 breast) was over 100000 nM, the GI50 (HS 578T breast) was 18.6 nM and the TGI (HS 578T breast) was 38.9 nM. For the same molecule, the GI50 (LOX IMVI melanoma) was 49.8 nM, the TGI (LOX IMVI melanoma) was 298 nM and the GI50 (ACHN renal) was 80.1 nM. The TGI (ACHN renal) was 45100 nM, the GI50 (COLO 205 colon) was 16.3 nM and the TGI (COLO 205 colon) was 34.5 nM. The GI50 (SR leukemia) was 12.3 nM, the TGI (SR leukemia) was 25.6 nM and the GI50 (EKVX NSCLC) was 42.4 nM. It also gave a TGI (EKVX NSCLC) of 99400 nM, a GI50 (NCI-H322M lung) of 38.1 nM and a TGI (NCI-H322M lung) of 71600 nM. For the same molecule, the GI50 (U251 glioblastoma) was 32 nM, the TGI (U251 glioblastoma) was 150 nM and the GI50 (TK-10 renal) was 39.9 nM. For the same molecule, the TGI (TK-10 renal) was 45900 nM, the GI50 (HOP-92 NSCLC) was 38.1 nM and the TGI (HOP-92 NSCLC) was 2950 nM. It also gave a GI50 (SF-295 CNS) of 15.7 nM, a TGI (SF-295 CNS) of 38 nM and a GI50 (SK-MEL-5 melanoma) of 20.3 nM. The TGI (SK-MEL-5 melanoma) was 46.6 nM, the GI50 (HCT-15 colon) was 32.1 nM and the TGI (HCT-15 colon) was 163 nM. It also gave a GI50 (MDA-MB-468 breast) of 15.6 nM, a TGI (MDA-MB-468 breast) of 30.6 nM and a GI50 (NCI-H23 lung) of 22.8 nM. It also gave a TGI (NCI-H23 lung) of 60.3 nM, a GI50 (CCRF-CEM leukemia) of 18.4 nM and a TGI (CCRF-CEM leukemia) of 33.3 nM. It also gave a GI50 (SF-268 CNS) of 35.2 nM, a TGI (SF-268 CNS) of 513 nM and a GI50 (SK-MEL-28 melanoma) of 38.6 nM. For the same molecule, the TGI (SK-MEL-28 melanoma) was over 100000 nM, the GI50 (NCI-H460 NSCLC) was 20.2 nM and the TGI (NCI-H460 NSCLC) was 45.4 nM. For the same molecule, the GI50 (A549 NSCLC) was 50.2 nM, the TGI (A549 NSCLC) was over 100000 nM and the GI50 (MOLT-4 leukemia) was 15.3 nM. The TGI (MOLT-4 leukemia) was 29.8 nM, the GI50 (IGROV1 ovarian) was 61.2 nM and the TGI (IGROV1 ovarian) was 54400 nM. It also gave a GI50 (SNB-19 CNS) of 41.3 nM, a TGI (SNB-19 CNS) of 3110 nM and a GI50 (M14 melanoma) of 18.5 nM. The TGI (M14 melanoma) was 42.2 nM, the GI50 (DU-145 prostate) was 30.2 nM and the TGI (DU-145 prostate) was 174 nM. For the same molecule, the GI50 (OVCAR-8 ovarian) was 31.4 nM, the TGI (OVCAR-8 ovarian) was 134 nM and the GI50 (BT-549 breast) was 28.3 nM. The TGI (BT-549 breast) was 179 nM, the GI50 (MCF7 breast) was 49.9 nM and the TGI (MCF7 breast) was 7190 nM. It also gave a GI50 (A498 renal) of 31.8 nM, a TGI (A498 renal) of 625 nM and a GI50 (HL-60(TB) leukemia) of 16.1 nM. It also gave a TGI (HL-60(TB) leukemia) of 29.7 nM, a GI50 (OVCAR-3 ovarian) of 17.4 nM and a TGI (OVCAR-3 ovarian) of 41.7 nM. It also gave a GI50 (UO-31 renal) of 66.5 nM, a TGI (UO-31 renal) of over 100000 nM and a GI50 (HCC-2998 colon) of 20.4 nM. For the same molecule, the TGI (HCC-2998 colon) was 133 nM, the GI50 (K-562 leukemia) was 19.8 nM and the TGI (K-562 leukemia) was 54.1 nM. The GI50 (CAKI-1 renal) was 40.1 nM, the TGI (CAKI-1 renal) was over 100000 nM and the GI50 (RPMI-8226 leukemia) was 14.2 nM. It also gave a TGI (RPMI-8226 leukemia) of 27.7 nM, a GI50 (NCI-H522 lung) of 17.6 nM and a TGI (NCI-H522 lung) of 44.9 nM. The GI50 (NCI/ADR-RES ovarian) was 17.7 nM, the TGI (NCI/ADR-RES ovarian) was 39.3 nM and the GI50 (PC-3 prostate) was 34.5 nM. For the same molecule, the TGI (PC-3 prostate) was over 100000 nM, the GI50 (RXF 393 renal) was 17.5 nM and the TGI (RXF 393 renal) was 39.7 nM. The GI50 (HCT-116 colon) was 31.8 nM and the TGI (HCT-116 colon) was 709 nM.
O=c1[nH]c(=O)n(C2CC(O)C(CO)O2)cc1F (configuration not stated) gave a GI50 (OVCAR-5 ovarian) of 321 nM, a GI50 ([…]-0 renal) of 69.9 nM and a GI50 (SF-539 CNS) of 11.2 nM. The TGI (SF-539 CNS) was 102 nM, the GI50 (MDA-MB-435 melanoma) was 1380 nM and the GI50 (SK-OV-3 ovarian) was 112 nM. It also gave a GI50 (OVCAR-4 ovarian) of 27400 nM, a GI50 (KM12 colon) of 844 nM and a GI50 (SW-620 colon) of 28.7 nM. It also gave a GI50 (SN12C renal) of 28.9 nM, a TGI (SN12C renal) of 238 nM and a GI50 (HT29 colon) of 53.9 nM. It also gave a GI50 (MDA-MB-231 breast) of 444 nM, a GI50 (HS 578T breast) of 28.2 nM and a TGI (HS 578T breast) of 171 nM. It also gave a GI50 (LOX IMVI melanoma) of 35.4 nM, a GI50 (ACHN renal) of 30.2 nM and a GI50 (NCI-H322M lung) of 345 nM. For the same molecule, the GI50 (U251 glioblastoma) was 112 nM, the GI50 (TK-10 renal) was 721 nM and the GI50 (HOP-92 NSCLC) was 2480 nM. It also gave a GI50 (T-47D breast) of 11500 nM, a GI50 (SF-295 CNS) of 13.2 nM and a TGI (SF-295 CNS) of 53.2 nM. The GI50 (MALME-3M melanoma) was 3990 nM, the GI50 (HCT-15 colon) was 55.1 nM and the GI50 (MDA-MB-468 breast) was 13.7 nM. For the same molecule, the TGI (MDA-MB-468 breast) was 53.7 nM, the GI50 (NCI-H23 lung) was 112 nM and the GI50 (CCRF-CEM leukemia) was 23.8 nM. The TGI (CCRF-CEM leukemia) was 97.2 nM, the GI50 (SF-268 CNS) was 13 nM and the GI50 (SK-MEL-28 melanoma) was 101 nM. For the same molecule, the TGI (SK-MEL-28 melanoma) was 3610 nM, the GI50 (A549 NSCLC) was 31.8 nM and the TGI (MOLT-4 leukemia) was 15.7 nM. For the same molecule, the GI50 (IGROV1 ovarian) was 559 nM, the GI50 (SNB-19 CNS) was 39.4 nM and the GI50 (M14 melanoma) was 104 nM. It also gave a GI50 (DU-145 prostate) of 35.9 nM, a GI50 (UACC-62 melanoma) of 177 nM and a GI50 (OVCAR-8 ovarian) of 79.8 nM. It also gave a TGI (BT-549 breast) of 2780 nM, a GI50 (SNB-75 CNS) of 16.9 nM and a TGI (A498 renal) of 59500 nM. It also gave a GI50 (HL-60(TB) leukemia) of 25.5 nM, a TGI (HL-60(TB) leukemia) of 115 nM and a GI50 (UO-31 renal) of 26.1 nM. The GI50 (K-562 leukemia) was 351 nM, the TGI (K-562 leukemia) was 9400 nM and the GI50 (CAKI-1 renal) was 69.5 nM. It also gave a GI50 (NCI/ADR-RES ovarian) of 214 nM, a GI50 (PC-3 prostate) of 90.4 nM and a GI50 (RXF 393 renal) of 2920 nM. The TGI (RXF 393 renal) was 25900 nM, the GI50 (HCT-116 colon) was 52.9 nM and the TGI (HCT-116 colon) was 40600 nM.
